Laboratory results: patent US4489079A, “Pharmaceutical compositions having a peripheral antagonistic action with respect to opiates” (priority 1981, dated 1984)

Columns and labels:
[1] = test system: constipating effect of morphine; assay: antagonism to the constipating effect of morphine (charcoal meal test, after A. F. Green, modified); settings: for Antagonism with respect to the constipating effect ID50 c: subcutaneous antagonist, 5 min before 12 mg/kg s.c. morphine, female mice, extrapolated from least squares line log dose-response, limits in parentheses printed on next line; for ED50: Mus musculus, sc, read-out: Antagonism with respect to the constipating effect ID50 c
[2] = test system: analgesic effect of morphine; settings: for central effects / central activity (in words): conclusion from Table I; for ID50 a / ID50 c: ratio of analgesic-effect ID50 a to constipating-effect ID50 c; for ID50 a / ID50 c / Antagonism with respect to the analgesic effect ID50 a: (°) inactive up to the maximum injectable dose; for Antagonism with respect to the analgesic effect ID50 a: subcutaneous antagonist, 5 min before 12 mg/kg s.c. morphine, female mice, limits in parentheses, where given, on next line
[3] = test system: analgesic effect of morphine; assay: animal or person; settings: Mus musculus, sc, read-out: Antagonism with respect to the analgesic effect ID50 a
[4] = morphine control group, 12 mg/kg subcutaneous

Row | SMILES | Antagonism with respect to the constipating effect ID50 c [1] | central effects / central activity (in words) [2] | ID50 a / ID50 c [2] | Antagonism with respect to the analgesic effect ID50 a [2] | animals showing the increase of the threshold of sensitivity [2, 4] | average increase of the threshold of sensitivity [2, 4] | ED50 [1] | ED50 [3] | ID50 a relative to ID50 c (in words) ([2]; mouse, in vivo)
1 | C=CC[N+]1(C)CC[C@]23c4c5ccc(O)c4O[C@H]2C(=O)CC[C@@]3(O)[C@H]1C5.COS(=O)(=O)[O-] (some centres unmarked) [naloxone sulfomethylate] | 2.99 mg/kg | have a certain central activity | 1.68 | 5.039 mg/kg |  |  |  |  | 
2 | C=CC[N+]1(CC=C)CC[C@]23CCCC[C@H]2[C@H]1Cc1ccc(O)cc13 [levallorphan bromoallylate, bromoallylate of levallorphan] |  |  | > 5.11 | > 80 mg/kg |  |  |  |  | 
3 | C=CC[N+]1(CC=C)CC[C@]23CCCC[C@H]2[C@H]1Cc1ccc(O)cc13 [levallorphan iodoallylate, iodoallylate of levallorphan] | 16.68 mg/kg |  | > 3.61 | > 60 mg/kg |  |  |  |  | 
4 | CN1CC[C@]23c4c5ccc(O)c4O[C@H]2[C@@H](O)C=C[C@H]3[C@H]1C5 [morphine] |  |  |  |  | 100% | 100% |  |  | 
5 | C=CCN1CC[C@]23c4c5ccc(O)c4O[C@H]2C(=O)CC[C@@]3(O)[C@H]1C5 [naloxone, N-allylnoroxymorphone] |  | very active | 0.11 |  |  |  | 0.75 mg/kg | 0.083 mg/kg | much more active as antagonist of the analgesic effect than antagonist of the constipating effect
6 | C=CC[N+]1(C)CC[C@]23c4c5ccc(O)c4O[C@H]2C(=O)CC[C@@]3(O)[C@H]1C5 (some centres unmarked) [naloxone bromomethylate] |  | have a certain central activity | 0.47 |  |  |  | 10.8 mg/kg | 5.12 mg/kg | 
